The subject of assay [1] is Dual specificity mitogen-activated protein kinase kinase 6 (Homo sapiens), P52564 [S207E,T211E]. The assay is described as follows: (§1) Selectivity interaction (LanthaScreen Eu Kinase Binding Assay) EUB0001632a MAP2K6. The note with it: at 10 µM.
The target of assay [2] is T1, Dual specificity mitogen-activated protein kinase kinase 6 (Homo sapiens) (UniProt P52564).
T1 sequence (whole entry): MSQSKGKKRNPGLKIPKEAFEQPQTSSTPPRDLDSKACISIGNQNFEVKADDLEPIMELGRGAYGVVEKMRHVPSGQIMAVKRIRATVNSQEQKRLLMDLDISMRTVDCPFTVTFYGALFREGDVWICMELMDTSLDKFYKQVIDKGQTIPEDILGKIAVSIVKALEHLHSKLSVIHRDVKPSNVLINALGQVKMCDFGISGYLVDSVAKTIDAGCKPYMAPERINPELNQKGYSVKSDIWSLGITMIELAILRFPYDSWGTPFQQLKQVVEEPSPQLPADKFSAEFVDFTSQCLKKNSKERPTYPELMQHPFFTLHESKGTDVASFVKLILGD
The description is as §1. The note with it: at 10 µM.

The target in assay [3] is T2, Receptor-interacting serine/threonine-protein kinase 1 (Homo sapiens) (UniProt Q13546).
T2 sequence (whole entry): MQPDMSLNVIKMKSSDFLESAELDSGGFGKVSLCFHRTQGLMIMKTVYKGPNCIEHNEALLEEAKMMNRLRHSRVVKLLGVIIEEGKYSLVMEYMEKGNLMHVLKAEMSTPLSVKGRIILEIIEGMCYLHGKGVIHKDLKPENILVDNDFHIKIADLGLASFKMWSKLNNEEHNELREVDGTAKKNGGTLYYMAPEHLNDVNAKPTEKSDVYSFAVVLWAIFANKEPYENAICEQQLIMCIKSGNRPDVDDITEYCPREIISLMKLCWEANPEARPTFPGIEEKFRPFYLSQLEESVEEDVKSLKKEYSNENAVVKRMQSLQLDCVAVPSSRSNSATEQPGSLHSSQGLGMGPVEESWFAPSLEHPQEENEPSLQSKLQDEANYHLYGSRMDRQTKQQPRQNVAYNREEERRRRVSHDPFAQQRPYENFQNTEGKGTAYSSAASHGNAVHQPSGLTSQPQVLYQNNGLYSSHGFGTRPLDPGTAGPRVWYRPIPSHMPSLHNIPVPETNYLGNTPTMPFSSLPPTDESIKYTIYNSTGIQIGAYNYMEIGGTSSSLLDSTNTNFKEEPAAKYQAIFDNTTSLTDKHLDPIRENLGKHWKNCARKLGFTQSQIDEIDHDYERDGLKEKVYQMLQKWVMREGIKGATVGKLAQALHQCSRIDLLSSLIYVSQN
The assay is described as follows: Selectivity interaction (Kinase panel (Eurofins)) EUB0001564a RIPK1. Particulars: at 1 µM.

Assay [4] concerns the target Cyclin-dependent kinase 14 (Homo sapiens) (UniProt O94921). The assay is described as follows: Selectivity interaction (ActivX KiNativ screen (kinase selectivity in THP-1 cell lysates)) EUB0000639a CDK14. It is filed as subcellular. The note with it: lysate, at 0.2 µM.
Assay [5] addresses T3, Serine/threonine-protein kinase Nek1 (Homo sapiens) (UniProt Q96PY6).
T3 sequence (whole entry): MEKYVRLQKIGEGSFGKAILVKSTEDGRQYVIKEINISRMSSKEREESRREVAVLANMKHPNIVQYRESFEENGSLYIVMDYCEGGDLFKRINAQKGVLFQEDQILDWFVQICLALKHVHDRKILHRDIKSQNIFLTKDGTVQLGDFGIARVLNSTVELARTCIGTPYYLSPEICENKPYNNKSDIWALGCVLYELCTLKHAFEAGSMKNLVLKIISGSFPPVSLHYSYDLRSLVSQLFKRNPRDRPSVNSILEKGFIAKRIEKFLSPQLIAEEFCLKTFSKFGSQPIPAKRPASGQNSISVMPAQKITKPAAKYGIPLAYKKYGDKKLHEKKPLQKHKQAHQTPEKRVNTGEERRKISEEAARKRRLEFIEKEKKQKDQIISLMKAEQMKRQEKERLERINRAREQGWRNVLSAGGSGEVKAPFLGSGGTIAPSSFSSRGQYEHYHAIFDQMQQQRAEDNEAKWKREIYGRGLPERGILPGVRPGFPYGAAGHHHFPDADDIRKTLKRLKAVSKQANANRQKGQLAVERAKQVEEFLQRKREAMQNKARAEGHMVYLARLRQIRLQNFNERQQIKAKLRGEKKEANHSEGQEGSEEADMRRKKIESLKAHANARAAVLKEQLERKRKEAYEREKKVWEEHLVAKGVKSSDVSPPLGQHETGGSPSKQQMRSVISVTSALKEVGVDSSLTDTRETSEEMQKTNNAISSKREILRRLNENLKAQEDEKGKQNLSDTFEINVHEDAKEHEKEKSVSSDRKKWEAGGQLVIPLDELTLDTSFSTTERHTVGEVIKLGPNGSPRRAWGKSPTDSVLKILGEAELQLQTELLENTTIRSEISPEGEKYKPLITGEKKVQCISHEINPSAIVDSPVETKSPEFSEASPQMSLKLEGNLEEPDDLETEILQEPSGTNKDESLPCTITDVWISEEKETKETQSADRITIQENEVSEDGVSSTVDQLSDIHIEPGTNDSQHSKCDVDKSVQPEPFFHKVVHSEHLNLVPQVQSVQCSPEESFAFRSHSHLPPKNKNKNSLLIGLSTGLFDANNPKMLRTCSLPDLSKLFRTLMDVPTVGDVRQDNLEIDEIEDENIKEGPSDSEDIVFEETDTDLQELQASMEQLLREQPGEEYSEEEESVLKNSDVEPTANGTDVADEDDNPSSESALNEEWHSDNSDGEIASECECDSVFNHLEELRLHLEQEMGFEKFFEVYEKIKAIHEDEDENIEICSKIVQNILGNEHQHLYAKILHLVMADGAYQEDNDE
The assay is described as follows: Selectivity interaction (Kinase panel (DSF assay)) EUB0001559a NEK1.

The structures appear in SMILES notation.

Sequence of Cyclin-dependent kinase 14 (Homo sapiens) (O94921 whole entry): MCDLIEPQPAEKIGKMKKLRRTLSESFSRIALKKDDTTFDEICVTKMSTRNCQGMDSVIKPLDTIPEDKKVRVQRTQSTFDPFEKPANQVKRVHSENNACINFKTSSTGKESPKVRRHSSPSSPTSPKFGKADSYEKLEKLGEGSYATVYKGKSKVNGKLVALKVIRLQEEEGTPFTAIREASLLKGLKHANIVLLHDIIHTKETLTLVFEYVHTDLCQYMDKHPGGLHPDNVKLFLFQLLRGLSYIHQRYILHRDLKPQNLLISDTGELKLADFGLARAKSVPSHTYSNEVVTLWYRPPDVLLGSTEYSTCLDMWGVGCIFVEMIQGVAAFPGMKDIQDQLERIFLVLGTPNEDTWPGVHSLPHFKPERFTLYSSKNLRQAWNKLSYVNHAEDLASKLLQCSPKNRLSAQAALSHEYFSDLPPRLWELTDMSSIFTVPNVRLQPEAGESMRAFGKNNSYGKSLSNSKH
Sequence of Dual specificity mitogen-activated protein kinase kinase 6 (Homo sapiens), P52564 [S207E,T211E] (P52564 whole entry S207E/T211E): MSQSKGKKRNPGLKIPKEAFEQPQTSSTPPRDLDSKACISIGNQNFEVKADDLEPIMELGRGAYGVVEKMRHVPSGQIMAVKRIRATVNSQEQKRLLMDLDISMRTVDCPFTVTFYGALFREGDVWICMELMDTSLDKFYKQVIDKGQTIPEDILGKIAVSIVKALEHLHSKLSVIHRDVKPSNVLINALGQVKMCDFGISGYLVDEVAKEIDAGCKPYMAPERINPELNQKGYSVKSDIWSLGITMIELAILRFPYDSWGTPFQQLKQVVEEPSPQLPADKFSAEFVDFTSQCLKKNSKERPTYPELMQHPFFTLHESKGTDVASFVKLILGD

Regarding `Cn1cc(-n2cnc3c(NCc4nc5cc(Cl)c(Cl)cc5[nH]4)nc(N4CCOCC4)nc32)cn1`, the % of inhibition in assay [1] was -8.6%; in assay [2], -35%.

For the compound `CC[C@@H](Nc1c(C#N)c(-c2ccc(-c3cccc(C)c3F)cc2)nc2cnccc12)C(=O)O` [BAY-091], the % of inhibition in assay [3] amounted to 21.2%.

As to `CC[C@@H]1[C@H](F)C(=O)N[C@@H]1COc1nccc2cc(C(N)=O)c(OC)cc12` [ZIMLOVISERTIB], the % of inhibition in assay [4] was -7.5%.

In assay [5], `CN(C(=O)c1cnn2cccnc12)c1cc2c(cc1N1CCOCC1)C(=O)N(C[C@@H](F)C(C)(C)O)C2` displayed a dTM of 0.4 K.

The values above are taken from ChEMBL document CHEMBL5465560, “Selectivity Literature for EUbOPEN Chemogenomic Library” (2024).
